# Measured values published in PMC9013686, “Inter-individual variation in chlorpyrifos toxicokinetics characterized by physiologically based kinetic (PBK) and Monte Carlo simulation comparing human liver microsome and Supersome™ cytochromes P450 (CYP)-specific kinetic data as model input” (Archives of Toxicology, 2022).
# Assay: PBK modelling with Monte Carlo simulation (Supersome-based and HLM-based)
# Design: species or system human
# Settings: oral 0.5 mg/kg bw CPF, in vivo data Nolan et al. [1984]
# Text: Compared to the PBK model of Zhao et al. ([2019]), only the fractional absorption was changed to 0.462, which is the mean value of reported fa values from Timchalk et al. ([2002]) (fa = 0.224) and Nolan et al. ([1984]) (fa = 0.7), while for the other model parameters (non-kinetic), the mean values as reported in Zhao et al. ([2019]) were used.
# Compared to the model of Zhao et al. ([2019]), in the Supersome™-based PBK model approach, the kinetic parameters of pathway 1 and pathway 2 were replaced from HLM-derived values to Supersome™-derived values, while the kinetic parameters of pathway 3 were kept the same. For pathway 4, instead of using the reported kinetic parameters from Mosquin et al. ([2009]), the calculated mean values of kinetic parameters obtained based on 25 individual HP samples derived by the present study were used. […]
# The performance of the Supersome™-based PBK model and the HLM-based PBK model (biphasic) were evaluated by comparing their predicted time-dependent TCPy and CPF blood concentrations including the maximum total (bound and unbound) blood concentration (Cmax) or time-dependent blood concentration, and the cumulative time-dependent urinary TCPy excretion with corresponding available in vivo data (Drevenkar et al. [1993]; Nolan et al. [1984]; Timchalk et al. [2002]) upon similar dosing regimens or estimated dose level. […]
smiles,measurement,setting,value
"Oc1nc(Cl)c(Cl)cc1Cl [TCPy, 3,5,6-trichloro-2-pyridinol]",predicted blood Cmax versus mean in vivo Cmax,both PBK models,2.2 fold
same,predicted urinary excretion at 120 h versus in vivo value,,0.8 fold
